Key:
m4 receptors = m4 receptors (Homo sapiens, UniProt P08173); format: cell-based; conditions: CHO m4 cells treated with pertussis toxin
[1] = target: muscarinic cholinergic receptors; experiment: 3H-oxotremorine-M binding study (oxotremorine-M versus N-methylscopolamine, Freedman et al.); conditions: inhibition of binding of 3H-oxotremorine-M; read-out: inhibition costant (Ki)
[2] = target: muscarinic cholinergic receptors; conditions: 3H-QNB binding assay

Sequence of m4 receptors (P08173 whole entry): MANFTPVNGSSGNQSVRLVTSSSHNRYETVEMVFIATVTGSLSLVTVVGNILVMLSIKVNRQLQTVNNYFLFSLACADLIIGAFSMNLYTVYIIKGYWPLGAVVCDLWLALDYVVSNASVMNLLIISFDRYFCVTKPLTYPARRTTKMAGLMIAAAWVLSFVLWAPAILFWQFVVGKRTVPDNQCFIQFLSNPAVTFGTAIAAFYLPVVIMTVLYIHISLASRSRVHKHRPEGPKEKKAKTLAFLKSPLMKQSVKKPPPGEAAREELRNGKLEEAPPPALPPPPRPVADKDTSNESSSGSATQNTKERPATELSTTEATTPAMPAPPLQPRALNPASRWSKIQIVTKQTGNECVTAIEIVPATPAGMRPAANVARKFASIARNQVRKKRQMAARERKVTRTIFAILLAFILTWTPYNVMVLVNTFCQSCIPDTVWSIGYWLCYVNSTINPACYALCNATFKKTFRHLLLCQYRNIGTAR

In the case of `CCCCCCOc1nsnc1C1=CCCN(C)C1` [Xanomeline, 3-(4-hexyloxy-1,2,5-thiadiazol-3-yl)-1,2,5,6-tetrahydro-1-methylpyridine], the “formation of cAMP” value (m4 receptors) is reported as “efficaciously and potently stimulated the formation of cAMP”, the Ki [1] is reported as 0.002 µM and the IC50 [2] is reported as < 1000 µM.

— patent publication EP0821959A2 (priority 1996, dated 1998)
